Data published in US9365556B2, “3,5-diaminopyrazole kinase inhibitors” (Axikin Pharmaceuticals, Inc., priority 2012, dated 2016).

Legend:
[1] = target: T1, kinase domain protein of RC kinase (Homo sapiens, UniProt Q56UN5); assay: Enzymatic assay for kinase inhibitory activity (Crebtide substrate, LANCE read-out); assay type: biochemical; settings: compound at 1 μM
T1 sequence (Q56UN5 1061-1324 limits assumed): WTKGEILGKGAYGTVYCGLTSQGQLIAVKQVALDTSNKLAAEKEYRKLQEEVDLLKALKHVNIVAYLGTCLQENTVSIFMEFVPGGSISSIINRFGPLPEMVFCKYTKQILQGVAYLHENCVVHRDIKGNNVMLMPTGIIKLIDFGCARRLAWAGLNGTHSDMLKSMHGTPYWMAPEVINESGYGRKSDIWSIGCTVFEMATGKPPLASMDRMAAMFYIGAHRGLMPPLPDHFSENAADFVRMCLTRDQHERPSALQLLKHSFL
In short: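 Compound tested at 1 μM final in HEPES/MgCl2/DTT buffer with 50 nM Crebtide and kinase domain at 1 μM ATP; full-length kinase at 3 μM ATP after 45 min preincubation. Reaction 45 min at room temperature, stopped with EDTA, read by LANCE TR-FRET (665/615 nm). Activity binned as % inhibition at 1 μM.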

Structure (SMILES) | melting point [°C] | inhibition at 1 µM [1] [%]
NC(=O)c1c(Nc2cccc(Cl)c2)n[nH]c1/N=C/c1ccc(O)cc1O [Compound B30] | 220 to 225 | ≥ 50
COc1ccccc1/C=N/c1[nH]nc(Nc2ccc(Cl)cc2)c1C(N)=O [Compound B34] | 270 to 273 | ≤ 5
NC(=O)c1c(Nc2ccc(Cl)cc2)n[nH]c1/N=C/c1ccc(O)cc1O [Compound B36] | 243 to 246 | ≥ 50
NC(=O)c1c(Nc2cccc(Cl)c2)n[nH]c1/N=C/c1cc(Br)ccc1O [Compound B49, 5-((5-bromo-2-hydroxybenzylidene)amino)-3-((3-chlorophenyl)amino)-1H-pyrazole-4-carboxamide] | 281 to 283 | 5 to 20
NC(=O)c1c(Nc2cccc(Cl)c2)n[nH]c1/N=C/c1cc(Cl)ccc1O [Compound B50] | 283 to 287 | 5 to 20
COc1cccc(/C=N/c2[nH]nc(Nc3cccc(Cl)c3)c2C(N)=O)c1O [Compound B53] | 271 to 274 | 5 to 20
NC(=O)c1c(Nc2cccc(Cl)c2)n[nH]c1/N=C/c1ccccc1O [Compound B54] | 284 to 286 | 5 to 20
NC(=O)c1c(Nc2cccnc2)n[nH]c1/N=C/c1ccc(O)cc1 [Compound B121, 5-((4-hydroxybenzylidene)amino)-3-(pyridin-3-ylamino)-1H-pyrazole-4-carboxamide] | 306 to 309 | ≥ 50

Results, then the compound that gave them:

melting point [°C] | inhibition at 1 µM [1] [%] | Structure (SMILES)
279 to 283 | ≤ 5 | COc1cccc(/C=N/c2[nH]nc(Nc3ccc(Cl)cc3)c2C(N)=O)c1 [Compound B33]
301 to 304 | 5 to 20 | NC(=O)c1c(Nc2ccccc2Cl)n[nH]c1/N=C/c1ccc(O)c([N+](=O)[O-])c1 [Compound B113]
294 to 296 | 20 to 50 | NC(=O)c1c(Nc2ccccc2Cl)n[nH]c1/N=C/c1ccc([N+](=O)[O-])c(O)c1 [Compound B114]
254 to 258 | ≥ 50 | NC(=O)c1c(Nc2ccccc2Cl)n[nH]c1/N=C/c1ccc(O)cc1 [Compound B117]
304 to 306 | 5 to 20 | COc1ccc(/C=N/c2[nH]nc(Nc3ccccc3Cl)c2C(N)=O)cc1[N+](=O)[O-] [Compound B118]
267 to 270 | 5 to 20 | COc1ccc(/C=N/c2[nH]nc(Nc3ccccc3Cl)c2C(N)=O)c(O)c1 [Compound B119]
288 to 292 | ≥ 50 | COc1ccc(/C=N/c2[nH]nc(Nc3ccccc3Cl)c2C(N)=O)cc1 [Compound B120]
295 to 298 | 20 to 50 | COc1ccc(/C=N/c2[nH]nc(Nc3cccc(Cl)c3)c2C(N)=O)cc1 [Compound B122]
